Source: patent US20090029855A1, “Quinoline Derivatives and Their Use as Pesticides” (priority 2006, published 2009)

Experiments:
Assay type in all cases: in vivo
[1] = tested on: House Fly (Musca domestica); assay: House fly glass vial (glass contact) assay
Description: (§1) Glass vials (20 ml scintillation vials) were treated with 0.44 ml of a solution of active ingredient in acetone. Each vial was rolled uncapped for ca. 10 minutes to allow the active ingredient to completely coat the vial and to allow for full drying of the acetone. Six insects or ticks were placed into each vial, with 5 vials per treatment rate. The vials are kept at 22° C. and are observed for treatment effects at various time intervals.

[2] = tested on: Acrobat Ant (Crematogaster sp.); assay: Acrobat ant soil incorporation assay
Description: (§2) Soil was prepared by adding stock solutions (active dissolved in acetone) to 100 g sandy loam soil to make 1, 10, and 100 ppm batches. Jars of soils were rolled on a jar roller to mix thoroughly and then allowed to vent over night with the acetone evaporating off.
Ant bioassays were conducted in 100×20 mm Petri dishes and were prepared with a layer of 1% agar (7 ml) and then 12.75 g of dry treated soil. A cotton pellet (#2) soaked with a 10% sugar solution was added to each dish in a micro-weigh boat as a source of moisture and food. Each dish was then infested with 15 acrobat ant workers, Crematogaster sp. Three replicates were setup per treatment rate. Mortality was observed daily up to 7 days with moribund and dead ants removed at each reading.

[3] = tested on: Subterranean Termites (Reticulitermes flavipes); assay: Termite soil incorporation assay; conditions: 100 ppm after 9 days
Description: as §2
Subterranean termite bioassays were conducted in 50×15 mm Petri dishes and were prepared with a layer of 1% agar (2 ml) and then 2 g of dry treated soil. A 1 cm^2 piece of filter paper, moistened with 1 drop of distilled water was added to each dish as a source of cellulose food. Each dish was then infested with 15 eastern subterranean termite workers, Reticulitermes flavipes. Five replicates were setup per treatment rate. Mortality was observed daily up to 7 days with moribund and dead termites removed at each reading.

[4] = tested on: Eastern Subterranean Termites (Reticulitérmes Flávipes); assay: Activity against eastern subterranean termites via termite filter paper bait
Description: Toxicant treatments (0.1 and 0.3% test compound w/w) were applied to 4.25 cm (diam.) filter papers in acetone solution. Treatment levels (% test compound) were calculated on basis of a mean weight per filter paper of 106.5 mg. Treatment solutions were adjusted to provide the quantity of toxicant (mg) required per paper in […] of acetone. Acetone only was applied for untreated controls. Treated papers were vented to evaporate the acetone, moistened with 0.25 ml water, and placed in corresponding test arenas.
Termite bait bioassays were conducted in 100×15 mm Petri dishes with 1 teaspoon fine sand spread in a thin layer over the bottom of each dish. An additional 0.25 teaspoon sand was piled against the side of each dish. The sand was moistened with 2.7 ml water applied to the piled sand. Water was added to dishes as needed over the course of the bioassays to maintain high moisture content. Bioassays had one treated filter (on the sand) and 30 termite workers per test dish. Each treatment level was replicated in 3 test dishes. Test dishes were maintained at approximately 30° C. and 85% humidity for 14 days and observed daily for mortality.

[5] = tested on: Yellowfever Mosquito (Aedes aegypti); assay: Yellowfever mosquito glass vial (glass contact) assay
Description: as §1

[6] = tested on: Acrobat Ant (Crematogaster sp.); assay: Acrobat ant glass vial (glass contact) assay
Description: as §1

[7] = tested on: Yellowfever Mosquitos (Aedes Aegypti), 4th instar larvae; assay: Activity against yellowfever mosquitos via water treatment
Description: The test compound (1 Vol % in acetone) was applied to 9 ml distilled water In polystyrene plastic 6-well plates. Treatment rates were applied 1 and 10 ppm. Ten, 4th instar yellowfever mosquito larvae, Aedes aegypti, were added to each well in 1 ml of distilled water. The test dishes were maintained at 22° C. and observed daily for mortality, up to 5 days after treatment. Each treatment was replicated in 6 wells.

[8] = tested on: Southern Armyworm (Spodoptera Eridanid), 2nd-3rd instar larvae; assay: Southern armyworm, lima bean foliage dip; conditions: foliar, 96 h, after 4 days, read-out: mortality in comparison with untreated controls
Description: The active compounds were formulated as a 10.000 ppm solution in a mixture of 35% acetone and water, which was diluted with water, if needed.
Sieva lima bean foliage, expanded to the first true leaves, were dipped and agitated in the test solution for 3 seconds and then allowed to dry in a fume hood. The treated plant was then placed in 25-cm plastic perforated zip enclosure bags, ten 2nd-instar larvae were added, and the bags sealed. After 4 days, observations were made of mortality, plant feeding, and of any interference with larval growth.

[9] = tested on: Colorado Potato Beetle (Leptinotarsa Decemlineata); assay: Colorado potato beetle, potato leaf dip in Petri dishes; conditions: foliar, 120 h, 5 days after treatment, read-out: mortality in comparison with untreated controls
Description: Potato plants were utilized for bioassays. Excised plant leaves were dipped into 1:1 acetone/water dilutions of the active compounds. After the leaves had dried, they were individually placed onto water-moistened filter paper on the bottoms of Petri dishes. Each dish was infested with 5-7 larvae and covered with a lid. Each treatment dilution was replicated 4 times. Test dishes were held at approximately 27° C. and 60% humidity. Numbers of live and morbid larvae were assessed in each dish at 5 days after treatment application, and percent mortality was calculated.

[10] = tested on: Boll Weevil (Anthonomus grandis); assay: Activity against boll weevil, eggs in microtiterplates; conditions: eggs sprayed, 3 to 5 days
Description: The active compounds were formulated in 1:3 DMSO:water. 10 to 15 eggs were placed into microtiterplates filled with 2% agar-agar in water and 300 ppm formaline. The eggs were sprayed with 20 μl of the test solution, the plates were sealed with pierced foils and kept at 24-26° C. and 75-85% humidity with a day/night cycle for 3 to 5 days. Mortality was assessed on the basis of the remaining unhatched eggs or larvae on the agar surface and/or quantity and depth of the digging channels caused by the hatched larvae. Tests were replicated 2 times.

[11] = tested on: Silverleaf whitefly (Bemisia Argentifolii); assay: Silverleaf whitefly, cotton cotyledon dip; conditions: 72 h, 3 days after treatment, read-out: mortality in comparison with untreated controls
Description: (§3) The active compounds were formulated in 50:50 acetone:water and 100 ppm Kinetic™ surfactant.
Selected cotton plants were grown to the cotyledon state (one plant per pot). The cotyledons were dipped into the test solution to provide complete coverage of the foliage and placed in a well-vented area to dry. Each pot with treated seedling was placed in a plastic cup and 10 to 12 whitefly adults (approximately 3-5 day old) were introduced. The insects were colleted using an aspirator and an 0.6 cm, non-toxic Tygon tubing connected to a barrier pipette tip. The tip, containing the collected insects, was then gently inserted into the soil containing the treated plant, allowing insects to crawl out of the tip to reach the foliage for feeding. The cups were covered with a re-usable screened lid (150 micron mesh polyester screen PeCap from Tetko Inc). Test plants were maintained in the holding room at about 25° C. and 20-40% relative humidity for 3 days avoiding direct exposure to the fluorescent light (24 hour photoperiod) to prevent trapping of heat inside the cup. Mortality was assessed 3 days after treatment of the plants.

[12] = tested on: Green Peach Aphid (Myzus Persicae); assay: Green peach aphid, pepper plant leaf dip; conditions: foliar, 120 h, after 5 days, read-out: mortality in comparison with untreated controls
Description: as §3
Pepper plants in the 2nd leaf-pair stage (variety California Wonder) were infested with approximately 40 laboratory-reared aphids by placing infested leaf sections on top of the test plants. The leaf sections were removed after 24 hr. The leaves of the intact plants were dipped into gradient solutions of the test compound and allowed to dry. Test plants were maintained under fluorescent light (24 hour photoperiod) at about 25° C. and 20-40% relative humidity. Aphid mortality on the treated plants, relative to mortality on check plants, was determined after 5 days.

[13] = tested on: Diamond Back Moth (plutella Xylostella); assay: Activity against diamond back moth, cabbage leaf disk dip; conditions: foliar, after 72 h, read-out: mortality in comparison with untreated controls
Description: 13. Activity Against Diamond Back Moth (plutella Xylostella) The active compounds were formulated in 50:50 acetone:water and 0.1% (vol/vol) Alkamuls EL 620 surfactant. A 6 cm leaf disk of cabbage leaves was dipped in the test solution for 3 seconds and allowed to air dry in a Petri plate lined with moist filter paper. The leaf disk was inoculated with 10 third instar larvae and kept at 25-27° C. and 50-60% humidity for 3 days. Mortality was assessed after 72 h of treatment.

[14] = tested on: Cotton Aphid (Aphis Gossypil), mixed life stages; assay: Cotton aphid, mixed life stages, cotton cotyledon dip; conditions: 120 h, after 5 days, read-out: mortality in comparison with untreated controls
Text: The active compounds were formulated in 50:50 acetone:water and 100 ppm Kinetic® surfactant.
Cotton plants at the cotyledon stage were infested prior to treatment by placing a heavily infested leaf from the main aphid colony on top of each cotyledon. The aphids were allowed to transfer overnight and the host leaf was removed. The infested cotyledons were then dipped and agitated in the test solution for 3 seconds and allowed to dry in a fume hood. Test plants were maintained under fluorescent lighting in a 24-hr photoperiod at 25° C. and 20-40% relative humidity. Aphid mortality on the treated plants, relative to mortality on untreated check plants, was determined after 5 days.

[15] = tested on: Cowpea Aphid (Aphis Craccivora); assay: Activity against cowpea aphid, sprayed potted cowpea plants; conditions: population reduction recorded after 24, 72 and 120 hours, read-out: mortality in comparison with untreated controls
Description: The active compounds were formulated in 50:50 acetone:water. Potted cowpea plants colonized with 100-150 aphids of various stages were sprayed after the pest population has been recorded. Population reduction was recorded after 24, 72, and 120 hours.

[16] = tested on: Tobacco Budworm (Heliothis Virescens); assay: Activity against tobacco budworm, eggs in microtiterplates; conditions: 144 h, eggs sprayed, 6 days
Description: (§4) The active compounds were formulated in 1:3 DMSO:water. 15 to 25 eggs were placed into microtiterplates filled with diet. The eggs were sprayed with 10 μl of the test solution, the plates were sealed with pierced foils and kept at 27-29° C. and 75-85% humidity under fluorescent light for 6 days. Mortality was assessed on the basis of the agility and of comparative feeding of the hatched larvae. Tests were replicated 2 times.

[17] = tested on: Vetch Aphid (Megoura Viciae); assay: Activity against vetch aphid, bean leaf disks in microtiterplates; conditions: foliar, 144 h, leaf disks sprayed, 6 days
Description: The active compounds were formulated in 1:3 DMSO:water. Bean leaf disks were placed into microtiterplates filled with 0.8% agar-agar and 2.5 ppm OPUS™. The leaf disks were sprayed with 2.5 μl of the test solution and 5 to 8 adult aphids were placed into the microtiterplates which were then closed and kept at 22-24° C. and 35-45% under fluorescent light for 6 days. Mortality was assessed on the basis of vital, reproduced aphids. Tests were replicated 2 times.

[18] = tested on: Mediterranean Fruitfly (Ceratitis Capifata); assay: Activity against Mediterranean fruitfly, eggs in microtiterplates; conditions: 144 h, eggs sprayed, 6 days
Description: as §4, with “50” for “15”, “80” for “25”, “0.5% agar-agar and 14% diet in water.” for “diet.”, “5” for “10”, “agility” for “agility and of comparative feeding”

[19] = tested on: 2-Spotted Spider Mite (Tetranychus Urticae, OP-Resistant Strain); assay: 2-spotted spider mite, lima bean plant dip; conditions: 300 ppm; after 5 days
Description: as §3
Sieva lima bean plants with primary leaves expanded to 7-12 cm were infested by placing on each a small piece from an infested leaf (with about 100 mites) taken from the main colony. This was done at about 2 hours before treatment to allow the mites to move over to the test plant to lay eggs. The piece of leaf used to transfer the mites was removed. The newly-infested plants were dipped in the test solution and allowed to dry. The test plants were kept under fluorescent light (24 hour photoperiod) at about 25° C. and 20-40% relative humidity. After 5 days, one leaf was removed and mortality counts were made.

`O=S(=O)(NCc1ccnc2ccccc12)c1ccc(-c2ccc(C(F)(F)F)cc2C(F)(F)F)cc1` [I-10] showed a mortality ([1]; 10 ppm after 24 hours) of 80%, a mortality ([2]; 100 ppm after 3 days) of 100% and a mortality [3] of 84%. It also gave a mortality ([4]; 0.3% w/w after 14 days) of 86%, a mortality ([5]; 10 ppm after 24 hours) of 100% and a mortality ([6]; 100 ppm after 2 days) of 86%. The mortality ([7]; 10 ppm after 5 days) was 52%.

For `O=S(=O)(NCc1ccnc2c(Cl)cccc12)c1ccc(-c2ccc(C(F)(F)F)cc2C(F)(F)F)cc1` [I-22, 2′,4′-bis-trifluoromethyl-biphenyl-4-sulfonic acid (8-chloroquinoline-4-yl-methyl)-amide], the mortality at 300 ppm [8] was no less than 80% and the mortality at 300 ppm [9] was no less than 75%.

In the case of `O=S(=O)(NCc1ccnc2ccccc12)c1ccc(-c2ccc(Cl)cc2Cl)cc1` [I-1], the mortality ([1]; 10 ppm after 48 hours) is reported as 30%, the mortality ([2]; 100 ppm after 7 days) is reported as 36% and the mortality [3] is reported as 95%. The mortality ([4]; 0.1% w/w after 7 days) was 99%, the mortality ([5]; 10 ppm after 48 hours) was 37% and the mortality ([6]; 100 ppm after 4 days) was 7%. For the same compound, the mortality ([7]; 1 ppm after 3 days) was 100%.

Work on `O=S(=O)(NCc1ccnc2c(F)cccc12)c1ccc(Br)cc1` [II-5, 4-bromo-N-(8-fluoro-quinolin-4-ylmethyl)-benzenesulfonamide] yielded a mortality at 2500 ppm [10] of no less than 75%.

With `O=S(=O)(NCc1ccnc2ccccc12)c1ccc(-c2cc(Cl)ccc2Cl)cc1` [I-8, 2′,5′-dichloro-biphenyl-4-sulfonicacid (quinoline-4-ylmethyl)-amide] the mortality at 300 ppm [11] was no less than 70%, the mortality at 300 ppm [12] was no less than 75% and the mortality at 300 ppm [13] was no less than 75%. For the same compound, the mortality at 300 ppm [14] was no less than 80%, the mortality at 300 ppm [8] was no less than 80% and the mortality at 300 ppm [15] was no less than 80%. For the same compound, the mortality at 2500 ppm [10] was no less than 75%, the mortality at 2500 ppm [16] was no less than 75% and the mortality at 2500 ppm [17] was no less than 75%. For the same compound, the mortality at 2500 ppm [18] was no less than 75%.

In the case of `Cc1cc(C(F)(C(F)(F)F)C(F)(F)F)ccc1-c1ccc(S(=O)(=O)NCc2ccnc3ccccc23)cc1` [I-46], the “mortality in comparison with untreated controls” value [19] is reported as “at least 70%”.
